Paper PMC10285648, “iTAG an optimized IMiD-induced degron for targeted protein degradation in human and murine cells” (iScience, 2023)

Legend:
[1] = tested on: Flag-HA-DCD23-RBM39, Flag-HA-DCD23-SMS; assay: Quantitative TMT proteomics of CT26 expressing iTAG-tagged RBM39 or SMS; assay type: cell-based, mouse; settings: CT26, 10uM, 8h
Protocol: (§1) The protein lysates were probed for EGFP using western blotting. […] EGFP signal was then measured using flow cytometry. (3 independent experiments, normalized to the control and represented as mean ± SD). […] Data are plotted as Log2 fold change relative to DMSO versus Log10 of p value.
We then tested the degradation of RBM39 (nuclear) and SMS (cytoplasmic) N-terminally tagged with iTAG (DCD23) in CT26 and AT3 ([…]) (Figures 5C–5E).
Samples for quantitative proteomics were prepared using the SimPLIT workflow.[60] […] Samples were bath sonicated for 5 min, incubated at RT for 45 min and protein concentration was measured with the Bradford Protein Assay (Biorad) according to manufacturer instructions. […]
LC-MS analysis was performed on the Dionex Ultimate 3000 UHPLC system coupled with the Orbitrap Lumos mass spectrometer (Thermo Scientific). Samples were analyzed with the EASY-Spray C18 capillary column (75 μm × 50 cm, 2 μm) at 50°C. […] MS3 quantification was obtained with higher-energy collisional dissociation (HCD) fragmentation of the top 5 most abundant CID fragments isolated with synchronous precursor selection (SPS). […]
The SEQUEST-HT search engine was used to analyze the acquired mass spectra in Proteome Discoverer 2.4 (Thermo Scientific) for protein identification and quantification. […]

Flag-HA-DCD23-EGFP = assay: Degradation of Flag-HA-DCD23-EGFP in murine cells; assay type: cell-based, mouse; settings: for DC50 / DCmax: 24h, flow cytometry
Protocol: Given the high degradation efficiency of DCD23 in human cells, we sought to test the applicability of this system in murine cells.
as §1
As an additional validation of iTAG (DCD23) induced degradation, we tested the same constructs in murine colorectal carcinoma cells (CT26) where we saw similar loss of EGFP with a panel of IMiD/CeLMODs (Figure S9B).

- DC50 (Flag-HA-DCD23-EGFP; 2208L): 2.7 nM
- DC50 (Flag-HA-DCD23-EGFP; PyMT): 4.3 nM
Structure (SMILES): O=C1CC[C@H](N2Cc3c(OCc4ccc(CN5CCOCC5)cc4)cccc3C2=O)C(=O)N1 [CC220, Iberdomide]
- degradation of iTAG (DCD23) tagged RBM39 and SMS [1]: robust degradation
- off-targets in proteome [1]: without any detected off-targets
- time of onset of loss of EGFP signal (Flag-HA-DCD23-EGFP; 2208L and PyMT): ≤ 1 h
- degradation of DCD23 tagged EGFP (Flag-HA-DCD23-EGFP; 2208L and PyMT, 24 h, western blotting): efficiently degraded
- DCmax (Flag-HA-DCD23-EGFP; 2208L): 88%
- DCmax (Flag-HA-DCD23-EGFP; PyMT): 81%
